Data: patent publication US20210122730A1, “GLUCOCORTICOID RECEPTOR MODULATORS” (ORIC Pharmaceuticals, Inc., priority 2017, published 2021)

target: T1, GR (Homo sapiens, UniProt P04150); assay: In Vitro GR Luciferase Reporter Assay (antagonist mode, CHO-K1-GR-MMTV-Luc reporter cells); type: cell-based; settings: antagonist mode, 10 nM Dexamethasone
T1 construct: expressed in transfected cells; host or cells: CHO-K1
T1 sequence (P04150 1-777): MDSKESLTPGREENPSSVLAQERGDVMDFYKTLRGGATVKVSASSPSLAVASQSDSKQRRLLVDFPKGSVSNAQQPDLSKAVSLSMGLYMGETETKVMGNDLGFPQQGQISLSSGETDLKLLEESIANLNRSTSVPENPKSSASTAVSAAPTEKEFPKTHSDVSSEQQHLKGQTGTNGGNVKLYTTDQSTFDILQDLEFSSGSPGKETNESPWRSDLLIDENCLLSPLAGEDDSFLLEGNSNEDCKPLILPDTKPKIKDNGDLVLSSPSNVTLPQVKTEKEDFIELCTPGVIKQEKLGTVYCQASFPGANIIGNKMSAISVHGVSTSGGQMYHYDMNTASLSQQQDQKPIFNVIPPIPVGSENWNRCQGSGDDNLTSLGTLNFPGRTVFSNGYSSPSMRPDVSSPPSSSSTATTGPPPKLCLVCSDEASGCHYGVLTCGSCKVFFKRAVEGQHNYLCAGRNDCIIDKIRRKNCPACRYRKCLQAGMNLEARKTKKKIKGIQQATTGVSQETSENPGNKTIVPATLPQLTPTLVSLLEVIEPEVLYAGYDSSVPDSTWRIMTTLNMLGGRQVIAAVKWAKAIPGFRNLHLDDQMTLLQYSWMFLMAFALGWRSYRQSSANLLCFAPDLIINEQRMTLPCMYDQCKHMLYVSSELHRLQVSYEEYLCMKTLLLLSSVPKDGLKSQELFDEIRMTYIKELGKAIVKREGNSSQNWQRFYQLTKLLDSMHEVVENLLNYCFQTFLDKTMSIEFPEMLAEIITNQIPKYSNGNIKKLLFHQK
Outline: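 Antagonist mode: compounds (8 serial 1:5 dilutions) added to GR-MMTV-luciferase CHO-K1 reporter cells co-exposed to 10 nM dexamethasone final, in phenol red-free DMEM plus 10% CSS. After roughly 18-24 h at 37° C, OneGlo luminescence read and IC50 calculated.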

| SMILES | IC50 [nM] |
| --- | --- |
| Cn1cc(S(=O)(=O)N(C2CCC2)[C@H]2CCC3=Cc4c(cnn4-c4ccc(F)cc4)C[C@]3(C(=O)c3cc(C(F)(F)F)ccn3)C2)cn1 [Example 235, N-cyclobutyl-N-((4aS,6S)-1-(4-fluorophenyl)-4a-(4-(trifluoromethyl)picolinoyl)-4,4a,5,6,7,8-hexahydro-1H-benzo[f]indazol-6-yl)-1-methyl-1H-pyrazole-4-sulfonamide] | ≤ 100 |
| Cn1ncc(S(=O)(=O)N(C2COC2)[C@H]2CCC3=Cc4c(cnn4-c4ccc(F)cc4)C[C@]3(C(=O)c3cc(C(F)(F)F)ccn3)C2)n1 [Example 239, N-((4aS,6S)-1-(4-fluorophenyl)-4a-(4-(trifluoromethyl)picolinoyl)-4,4a,5,6,7,8-hexahydro-1H-benzo[f]indazol-6-yl)-2-methyl-N-(oxetan-3-yl)-2H-1,2,3-triazole-4-sulfonamide] | ≤ 100 |
| CC(C)CN([C@H]1CCC2=Cc3c(cnn3-c3ccc(F)cc3)C[C@]2(C(=O)c2cc(Cl)ccn2)C1)S(=O)(=O)c1ccn(C)n1 [Example 249, N-((4aS,6S)-4a-(4-chloropicolinoyl)-1-(4-fluorophenyl)-4,4a,5,6,7,8-hexahydro-1H-benzo[f]indazol-6-yl)-N-isobutyl-1-methyl-1H-pyrazole-3-sulfonamide] | ≤ 100 |
| CC(C)CN([C@H]1CCC2=Cc3c(cnn3-c3ccc(F)cc3)C[C@]2(C(=O)c2cc(F)ccn2)C1)S(=O)(=O)c1ccn(C)n1 [Example 252, N-((4aS,6S)-1-(4-fluorophenyl)-4a-(4-fluoropicolinoyl)-4,4a,5,6,7,8-hexahydro-1H-benzo[f]indazol-6-yl)-N-isobutyl-1-methyl-1H-pyrazole-3-sulfonamide] | ≤ 100 |
| Cn1ncc(S(=O)(=O)N(C2CCC2)[C@H]2CCC3=Cc4c(cnn4-c4ccc(F)cc4)C[C@]3(C(=O)c3cc(C(F)(F)F)ccn3)C2)n1 [Example 256, N-cyclobutyl-N-((4aS,6S)-1-(4-fluorophenyl)-4a-(4-(trifluoromethyl)picolinoyl)-4,4a,5,6,7,8-hexahydro-1H-benzo[f]indazol-6-yl)-2-methyl-2H-1,2,3-triazole-4-sulfonamide] | ≤ 100 |
| O=C(c1cc(Cl)ccn1)[C@]12Cc3cnn(-c4ccc(F)cc4)c3C=C1CC[C@H](N(CC1(O)CC1)S(=O)(=O)c1ccc(F)cc1)C2 [Example 276, N-((4aS,6S)-4a-(4-chloropicolinoyl)-1-(4-fluorophenyl)-4,4a,5,6,7,8-hexahydro-1H-benzo[f]indazol-6-yl)-4-fluoro-N-((1-hydroxycyclopropyl)methyl) benzenesulfonamide] | ≤ 100 |
| CC(C)N([C@H]1CCC2=Cc3c(cnn3-c3ccc(F)cc3)C[C@]2(C(=O)c2cc(F)ccn2)C1)S(=O)(=O)c1cnn(C)n1 [Example 278, N-((4aS,6S)-1-(4-fluorophenyl)-4a-(4-fluoropicolinoyl)-4,4a,5,6,7,8-hexahydro-1H-benzo[f]indazol-6-yl)-N-isopropyl-2-methyl-2H-1,2,3-triazole-4-sulfonamide] | ≤ 100 |
| Cn1ccc(S(=O)(=O)N([C@H]2CCC3=Cc4c(cnn4-c4ccc(F)cc4)C[C@]3(C(=O)c3cc(F)ccn3)C2)[C@H]2C[C@@](C)(O)C2)n1 [Example 284, N-((4aS,6S)-1-(4-fluorophenyl)-4a-(4-fluoropicolinoyl)-4,4a,5,6,7,8-hexahydro-1H-benzo[f]indazol-6-yl)-N-((1s,3R)-3-hydroxy-3-methylcyclobutyl)-1-methyl-1H-pyrazole-3-sulfonamide] | ≤ 100 |

Continued, values first:

| IC50 [nM] | SMILES |
| --- | --- |
| ≤ 100 | O=C(c1cc(C(F)(F)F)ccn1)[C@]12Cc3cnn(-c4ccc(F)cc4)c3C=C1CC[C@H](N(C1CCCC1)S(=O)(=O)c1ccc(F)cc1)C2 [Example 237, N-cyclopentyl-4-fluoro-N-((4aS,6S)-1-(4-fluorophenyl)-4a-(4-(trifluoromethyl)picolinoyl)-4,4a,5,6,7,8-hexahydro-1H-benzo[f]indazol-6-yl)benzenesulfonamide] |
| ≤ 100 | Cn1ccc(S(=O)(=O)N(C2CCCC2)[C@H]2CCC3=Cc4c(cnn4-c4ccc(F)cc4)C[C@]3(C(=O)c3cc(C(F)(F)F)ccn3)C2)n1 [Example 238, N-cyclopentyl-N-((4aS,6S)-1-(4-fluorophenyl)-4a-(4-(trifluoromethyl)picolinoyl)-4,4a,5,6,7,8-hexahydro-1H-benzo[f]indazol-6-yl)-1-methyl-1H-pyrazole-3-sulfonamide] |
| ≤ 100 | O=C(c1ccc(Cl)cn1)[C@]12Cc3cnn(-c4ccc(F)cc4)c3C=C1CC[C@H](N(C1CC1)S(=O)(=O)c1ccc(F)cc1)C2 [Example 240, N-((4aS,6S)-4a-(5-chloropicolinoyl)-1-(4-fluorophenyl)-4,4a,5,6,7,8-hexahydro-1H-benzo[f]indazol-6-yl)-N-cyclopropyl-4-fluorobenzenesulfonamide] |
| ≤ 100 | O=C(c1cc(C(F)(F)F)ccn1)[C@]12Cc3cnn(-c4ccc(F)cc4)c3C=C1CC[C@H](N(C1CCC1)S(=O)(=O)c1ccn(C(F)F)n1)C2 [Example 253, N-cyclobutyl-1-(difluoromethyl)-N-((4aS,6S)-1-(4-fluorophenyl)-4a-(4-(trifluoromethyl)picolinoyl)-4,4a,5,6,7,8-hexahydro-1H-benzo[f]indazol-6-yl)-1H-pyrazole-3-sulfonamide] |
| ≤ 100 | Cn1ccc(S(=O)(=O)[C@H]2CCC3=Cc4c(cnn4-c4ccc(F)cc4)C[C@]3(C(=O)c3ncc(C(F)(F)F)s3)C2)n1 [Example 264, ((4aS,6S)-1-(4-fluorophenyl)-6-((1-methyl-1H-pyrazol-3-yl)sulfonyl)-1,4,5,6,7,8-hexahydro-4aH-benzo[f]indazol-4a-yl)(5-(trifluoromethyl)thiazol-2-yl)methanone] |
| ≤ 100 | O=C(c1ncc(C(F)(F)F)s1)[C@]12Cc3cnn(-c4ccc(F)cc4)c3C=C1CC[C@H](N(C1CC1)S(=O)(=O)c1ccc(Cl)nc1)C2 [Example 271, 6-chloro-N-cyclopropyl-N-((4aS,6S)-1-(4-fluorophenyl)-4a-(5-(trifluoromethyl)thiazole-2-carbonyl)-4,4a,5,6,7,8-hexahydro-1H-benzo[f]indazol-6-yl)pyridine-3-sulfonamide] |
| ≤ 100 | O=C(c1cc(F)ccn1)[C@]12Cc3cnn(-c4ccc(F)cc4)c3C=C1CC[C@H](N(CC1CC1)S(=O)(=O)c1ccc(F)cc1)C2 [Example 274, N-(cyclopropylmethyl)-4-fluoro-N-((4aS,6S)-1-(4-fluorophenyl)-4a-(4-fluoropicolinoyl)-4,4a,5,6,7,8-hexahydro-1H-benzo[f]indazol-6-yl)benzenesulfonamide] |
| ≤ 100 | O=C(c1cc(Cl)ccn1)[C@]12Cc3cnn(-c4ccc(F)cc4)c3C=C1CC[C@H](N(CC1CC1)S(=O)(=O)c1ccc(F)cc1)C2 [Example 275, N-((4aS,6S)-4a-(4-chloropicolinoyl)-1-(4-fluorophenyl)-4,4a,5,6,7,8-hexahydro-1H-benzo[f]indazol-6-yl)-N-(cyclopropylmethyl)-4-fluorobenzenesulfonamide] |
| ≤ 100 | CC(C)N(C(=O)C1CCCC1)[C@H]1CCC2=Cc3c(cnn3-c3ccc(F)cc3)C[C@]2(C(=O)c2ncc(C(F)(F)F)s2)C1 [Example 281, N-((4aS,6S)-1-(4-fluorophenyl)-4a-(5-(trifluoromethyl)thiazole-2-carbonyl)-4,4a,5,6,7,8-hexahydro-1H-benzo[f]indazol-6-yl)-N-isopropylcyclopentanecarbox-amide] |
| ≤ 100 | O=C(c1cc(C(F)(F)F)ccn1)[C@]12Cc3cnn(-c4ccc(F)cc4)c3C=C1CC[C@H](N(C1CC1)S(=O)(=O)c1ccc(C(F)(F)F)nc1)C2 [Example 285, N-cyclopropyl-N-((4aS,6S)-1-(4-fluorophenyl)-4a-(4-(trifluoromethyl)picolinoyl)-4,4a,5,6,7,8-hexahydro-1H-benzo[f]indazol-6-yl)-6-(trifluoromethyl)pyridine-3-sulfonamide] |
| 100 to 1000 | O=C(c1ccc(F)cc1)N(C1CC1)[C@H]1CCC2=Cc3c(cnn3-c3ccc(F)cc3)C[C@]2(C(=O)c2ncc(C(F)(F)F)s2)C1 [Example 291, N-cyclopropyl-4-fluoro-N-((4aS,6S)-1-(4-fluorophenyl)-4a-(5-(trifluoromethyl)thiazole-2-carbonyl)-4,4a,5,6,7,8-hexahydro-1H-benzo[f]indazol-6-yl)benzamide] |
| ≤ 100 | Cn1ncc(S(=O)(=O)N(CC2(O)CC2)[C@H]2CCC3=Cc4c(cnn4-c4ccc(F)cc4)C[C@]3(C(=O)c3ncc(C(F)(F)F)s3)C2)n1 [Example 292, N-((4aS,6S)-1-(4-fluorophenyl)-4a-(5-(trifluoromethyl)thiazole-2-carbonyl)-4,4a,5,6,7,8-hexahydro-1H-benzo[f]indazol-6-yl)-N-((1-hydroxycyclopropyl)methyl)-2-methyl-2H-1,2,3-triazole-4-sulfonamide] |
